Assay results: patent publication US12303499B2, “Aqueous based pharmaceutical formulations of 1,2-dihydropyridine compounds” (Eisai R&D Management Co., Ltd., priority 2018, dated 2025)
Converted amounts (≈) assume the structure as drawn.

Experiments:
Assay type in all cases: physicochemical
[1] = Aqueous solubility of perampanel without solubilizer; conditions: water without solubilizer, aqueous buffer
Description: Perampanel has particularly poor water solubility. Perampanel has an aqueous solubility of about 0.001 mg/mL at pH 7 at ambient room temperature. Many attempts to solubilize perampanel in water have failed.
Perampanel is a basic drug that has poor water solubility. One source of perampanel is FYCOMPA, obtained from Eisai Co. Ltd., of Tokyo. […] Solubility studies investigated numerous different solubilizers ranging from organic cosolvents, surfactants, amino acids, complexing agents, and cyclodextrins. Further solubility studies were conducted as a function of pH with four selected solubilizers in the pH range 2 to 6. Solubility with all four solubilizers decreased as the pH was increased from 2 to 6. (See FIG. 2)

[2] = Metastable zone width study (precipitation temperature on cooling); conditions: 40% SBE-β-CD, pH 7
Description: Meta-Stable Zone Width studies on SBE-β-CD based perampanel formulations containing varying concentrations of perampanel were performed to estimate the meta-stable zone for formulations containing 40% SBE-β-CD at pH 7. Lyophilization provides for long-term storage but requires reconstitution prior to use. When the lyophilized formulation is reconstituted, the solution is in a meta-stable supersaturated state. Meta-stable zone width analysis provides an estimate of how close a formulation is to the meta-stable state boundary.
Perampanel solutions of varying concentration were prepared in 40% SBE-β-CD at pH 7 and placed in a warm temperature controlled mixing vessel with a LASENTECH® probe to detect precipitation. Although those skilled in the art will recognize that formulations as stated in the prior examples may be prepared by a number of methods, the following method is used to prepare formulations at various perampanel concentrations in 40% SBE-β-CD, pH 7, liquid form, for the trials below. First, a SBE-β-CD solution at pH 1.8 is prepared by adding about 25 ml of water to a beaker, then adding about 20 g of SBE-β-CD. The SBE-β-CD has a water content of 4.7%, is 100% pure, and has a theoretical weight of 20 g/0.953, or 21.0 g. The SBE-β-CD is slowly added with mixing until it has dissolved. The volume is checked to ensure that it is not greater than 40 ml. pH of the solution is adjusted to pH 1.75 with 85% phosphoric acid.
The weight of perampanel used to prepared the desired concentration is then calculated by dividing 100 mg by the product of (1-[moisture content of perampanel/100]) and (anhydrous purity of perampanel/100). In some examples the moisture content is 3.7% and the anhydrous purity is 99.9%. The calculated amount of perampanel is added to the pH 1.75 solution, then mixed overnight at 40° C. The solution is filtered through a 20 μm filter at 40° C., then warmed to 40° C. At that temperature pH is adjusted to 7. Volume is adjusted to 50 mL with water and mixed.
The solutions were cooled at defined rates and the temperature at which precipitation occurred was recorded. The potency for each sample was measured by HPLC analysis. The precipitation temperature data were analyzed as per the method described by Sangwal, K. in Crystal Growth and Design, 9, 2 (2009) 942-950.
A plot of the precipitation temperature of perampanel from a 40% SBE-β-CD, pH 7 solution as a function of drug concentration (mg/mL) and cooling rate (deg C./hr) is provided in FIG. 8. A contour plot (see FIG. 9) and a 3-D plot (see FIG. 10) illustrating the relationship between cooling rate (deg/hr), perampanel concentration (mg/mL) and precipitation temperature were generated using the DESIGN-EXPERT® software, version 7.1.6. The DESIGN-EXPERT® model used the precipitation temperature, cooling rate, concentration and concentration terms to fit a surface to the data. The DESIGN-EXPERT® program was then able to extrapolate the precipitation temperature at zero cooling rate for different drug concentrations with 95% confidence intervals from the fit of the data.
This extrapolated data was used to prepare FIG. 11, which predicts the meta-stable zone boundary for perampanel in a 40% SBE-β-CD formulation at pH 7. Theoretically, if the drug concentration remains at or below the meta-stable zone boundary, then the drug should not precipitate from solution at the defined temperatures.

[3] = pH-solubility of perampanel in SBE-β-CD solutions; conditions: aqueous with cosolvent or surfactant or cyclodextrin
Description: Studies were conducted to determine the effect of Sulfobutyl Ether Beta Cyclodextrin (SBE-β-CD) concentration and pH on perampanel solubility. In one embodiment, the drug is solubilized at acidic pH in high concentration SBE-β-CD solutions, and then administered at neutral pH in low concentration SBE-β-CD solutions after dilution. The pH range studied for the formulation was 1.5 to 8.0 with a SBE-β-CD concentration range of 20% to 50%. For the diluted administration solution, the pH range studied was 6 to 8 with a SBE-β-CD concentration range of 3% to 9.5%.
In one embodiment, the drug product is administered after dilution with an IV fluid. The solubility of perampanel in SBE-β-CD was determined under diluted conditions in the neutral pH range. Perampanel concentrations after dilution can be as low as 0.08 mg/mL (8 mg in 100 mL) and as high as 0.24 mg/mL (12 mg in 50 mL).

N#Cc1ccccc1-c1cc(-c2ccccn2)cn(-c2ccccc2)c1=O [perampanel, 2-(6′-oxo-1′-phenyl-1′,6′-dihydro[2,3′-bipyridin]-5′-yl)benzonitrile]
solubility ([1]; 22° C., pH 2): 0.03 mg/mL (≈ 85.9 µM)
solubility ([1]; 22° C., pH 7): ~0.001 mg/mL (≈ 2.86 µM)
solubility ([1]; pH 7, ambient room temperature): ~0.001 mg/mL (≈ 2.86 µM)
Ppt T ([2]; Exp MC2-102-148, cooling 3.00 deg C./hour, measured 1.99 mg/mL): 21.6 deg C.
Ppt T ([2]; Exp MC2-102-149, cooling 1.00 deg C./hour, measured 1.64 mg/mL): 31.6 deg C.
Ppt T ([2]; Exp MC2-102-150, cooling 3.00 deg C./hour, measured 1.69 mg/mL): 13.7 deg C.
Ppt T ([2]; Exp MC2-102-151, cooling 6.00 deg C./hour, measured 1.63 mg/mL): 11.3 deg C.
Ppt T ([2]; Exp MC2-102-153, cooling 6.00 deg C./hour, measured 1.81 mg/mL): 12.6 deg C.
Ppt T ([2]; Exp MC2-102-154, cooling 1.00 deg C./hour, measured 1.97 mg/mL): 30.5 deg C.
Ppt T ([2]; Exp MC2-102-155, cooling 2.00 deg C./hour, measured 1.68 mg/mL): 12.2 deg C.
Ppt T ([2]; Exp MC2-102-157, cooling 4.00 deg C./hour, measured 1.70 mg/mL): 17.2 deg C.
Ppt T ([2]; Exp MC2-102-159, cooling 2.00 deg C./hour, measured 1.39 mg/mL): 6.4 deg C.
Ppt T ([2]; Exp MC2-102-161, cooling 0.50 deg C./hour, measured 1.79 mg/mL): 32.6 deg C.
Ppt T ([2]; Exp MC2-102-162, cooling 1.50 deg C./hour, measured 1.74 mg/mL): 21.7 deg C.
Ppt T ([2]; Exp MC2-102-163, cooling 0.75 deg C./hour, measured 1.51 mg/mL): 20.3 deg C.
Ppt T ([2]; Exp MC2-102-164, cooling 0.15 deg C./hour, measured 1.74 mg/mL): 36.6 deg C.
Ppt T ([2]; Exp MC2-102-165, cooling 0.30 deg C./hour, measured 1.80 mg/mL): 34.8 deg C.
Ppt T ([2]; Exp MC2-102-166, cooling 0.75 deg C./hour, measured 1.78 mg/mL): 32.1 deg C.
Ppt T ([2]; Exp MC2-102-168, cooling 1.00 deg C./hour, measured 1.52 mg/mL): 9.5 deg C.
Ppt T ([2]; Exp MC2-102-169, cooling 0.50 deg C./hour, measured 1.43 mg/mL): 29.5 deg C.
Ppt T ([2]; Exp MC2-102-170, cooling 0.30 deg C./hour, measured 1.43 mg/mL): 29.6 deg C.
Ppt T ([2]; Exp MC2-102-172, cooling 0.15 deg C./hour, measured 1.53 mg/mL): 33.3 deg C.
Ppt T ([2]; Exp MC2-102-174, cooling 0.40 deg C./hour, measured 1.51 mg/mL): 30.9 deg C.
Ppt T ([2]; Exp MC2-102-178, cooling 0.22 deg C./hour, measured 1.42 mg/mL): 33.7 deg C.
Ppt T ([2]; Exp MC2-102-181, cooling 0.10 deg C./hour, measured 1.46 mg/mL): 33.5 deg C.
Ppt T ([2]; Exp MC2-102-182, cooling 0.22 deg C./hour, measured 1.77 mg/mL): 35.5 deg C.
Ppt T ([2]; Exp MC2-102-185, cooling 0.40 deg C./hour, measured 1.30 mg/mL): 17.4 deg C.
Ppt T ([2]; Exp MC2-102-187, cooling 0.30 deg C./hour, measured 1.10 mg/mL): 10.2 deg C.
Ppt T ([2]; Exp MC2-102-192, cooling 0.20 deg C./hour, measured 1.21 mg/mL): 22.9 deg C.
Ppt T ([2]; Exp MC2-102-193, cooling 0.10 deg C./hour, measured 1.26 mg/mL): 24.1 deg C.
Ppt T ([2]; Exp MC2-102-197, cooling 0.40 deg C./hour, measured 1.06 mg/mL): 2.6 deg C.
Ppt T ([2]; Exp MC2-1108-001, cooling 0.40 deg C./hour, measured 0.97 mg/mL): 12.8 deg C.
solubility ([3]; 3% SBE-β-CD solution, 3% SBE-β-CD, pH 5.5): 0.02 mg/mL (≈ 57.2 µM)
solubility ([3]; 3% SBE-β-CD solution, 3% SBE-β-CD, pH 7): 0.03 mg/mL (≈ 85.9 µM)
solubility ([3]; 3% SBE-β-CD solution, 3% SBE-β-CD, pH 8): 0.03 mg/mL (≈ 85.9 µM)
solubility ([3]; 6% SBE-β-CD solution, 6% SBE-β-CD, pH 5.5): 0.04 mg/mL (≈ 114 µM)
solubility ([3]; 6% SBE-β-CD solution, 6% SBE-β-CD, pH 7): 0.03 mg/mL (≈ 85.9 µM)
solubility ([3]; 6% SBE-β-CD solution, 6% SBE-β-CD, pH 8): 0.06 mg/mL (≈ 172 µM)
solubility ([3]; 9.5% SBE-β-CD solution, 9.5% SBE-β-CD, pH 5): 0.08 mg/mL (≈ 229 µM)
solubility ([3]; 9.5% SBE-β-CD solution, 9.5% SBE-β-CD, pH 7): 0.08 mg/mL (≈ 229 µM)
